US10463710B2, “Short synthetic peptide for the treatment and/or prophylaxis of autoimmune and inflammatory disorders” (MacKay Memorial Hospital, priority 2015, dated 2019)

Columns and labels:
in vitro = format: cell-based, murine; conditions: mouse
[1] = tested on: HOCl-induced skin fibrosis; experiment: Mouse model of HOCl-induced systemic sclerosis (skin fibrosis); format: in vivo, BALB/c mice
Description: Induction of SSc have been successfully established by subcutaneously injection with prooxidative agents (e.g., hypochlorous acid, HOCl) in BALB/c mice every day for 6 weeks (Servettaz A et al., J Immuno. 2009; 182: 5855).
To produce HOCl, 166 μl of NaClO solution (2.6% as active chlorine) was added to 11.1 ml of KH2PO4 solution (100 mM; pH 7.2). The concentration of HOCl was determined by spectrophotometry at 292 nm (molar absorption coefficient 350 M^−1 cm^−1). Female BALB/c mice (6 weeks old) were randomly distributed into experimental and control groups (n=6 per group). A total of 100 μl of HOCl solution mixed with 7-mer vehicle or 7-mer (final concentration 0.2 mM) was injected subcutaneously into the shaved back of the mice, using a 27-gauge needle, every day for 6 wks. Subcutaneous injection of phosphate-buffered saline (PBS) was served as normal control. Mice were euthanized and their skins were harvested, fixed overnight in 4% paraformaldehyde and embedded in paraffin. […]
Approximately 20% skin homogenate was used to determine the levels of soluble collagen. The collagen levels were quantified using a Sircol™ soluble collagen assay (Biocolor Ltd., Newtownabbey) according to the manufacturer's protocols. […] Relative absorbance was measured at 540 nm. […]

LPS-induced arthritis = experiment: Rat model of LPS-induced arthritis; format: in vivo, Sprague-Dawley rats; conditions: 7-mer 1 mM intraarticular along with LPS, 3 days, FIG. 4
Description: In this study, acute arthritis was induced by direct injection of lipopolysaccharide (LPS) into rat joints in accordance with the procedures described by Pan R Y et al (J Virol. (1999) 73, 3410-3417). Briefly, adult (about 10 weeks old) male Sprague-Dawley rats (initial body wt=312±11 g) were anesthetized by an intraperitoneal injection of a Xylazine (10 mg/kg) and then randomly assigned to experimental groups; their right knees were later treated with a single intraarticular injection of 25 μl of 5% hyaluronic acid (HA) containing LPS (2 μg and 10 μg) or LPS+7-mer. 7-mer (10 mM stock) was dissolved in 25 μl of 5% HA to final concentration 1 mM. On day 2, the group LPS+7-mer or LPS+7-mer analogue was further treated with 7-mer by a single intraarticular is injection. On day 3, the knee joints were dissected and fixed in a 4% paraformaldehyde (PFA) solution and then decalcified with Shandon TBD-2 decalcifier (Thermo Scientific, Logan, Utah). The joints were then sectioned mid-sagittally and embedded in paraffin blocks. Sections (5 μm in thickness) were longitudinally cut, and stained with hematoxylin and eosin (H&E).
Rheumatoid arthritis (RA) is a chronic inflammatory disease characterized by an inflammation of the synovium leading to the destruction of joint cartilage and eventually the destruction of joint function. […]

[2] = tested on: OVA-induced allergic asthma; experiment: Mouse model of OVA-induced allergic asthma; format: in vivo, BALB/c mice; conditions: 7-mer 100 μM intranasal twice a day, vs OVA challenged mice, FIG. 6B
Description: BALB/c mice (4- to 5-weeks old females) were sensitized intraperitoneally with 1 μg of ovalbumin (OVA) and 200 μl of 1.5% aluminum hydroxide on days 0 and 7, respectively; and then challenged three times by intranasal injection with 250 μg of OVA on days 21, 22 and 23. Control mice were given OVA with ALUM in sensitization stages, and PBS in place of OVA in challenge stages. For treatment, 7-mer analogue was mixed with 1% CMC eye drop to a concentration 100 μM. On day 20 and after the OVA challenge (day 21), the mice were randomly assigned to two experimental groups (n=6 per group) is and the nasal was injected with 20 μl of 7-mer or vehicle drop twice a day for 4 days (to day 23). Twenty-four hrs after the final challenge with OVA (day 24), mice were euthanized and their eyes were harvested, fixed overnight in 4% paraformaldehyde and embedded in paraffin.
In this example, we investigate the efficacy of the present synthetic peptide on allergic asthma by use of the well-characterized murine model of allergic airway disease, employing ovalbumin as the antigen. The experimental murine asthma model was established in accordance with the procedures described in the section of “Materials and Methods,” and as depicted in panel A of FIG. 6.

CC(=O)N[C@@H](CC(=O)O)C(=O)N[C@@H](CC(C)C)C(=O)N[C@@H](Cc1ccc(O)cc1)C(=O)N[C@@H](CCCNC(=N)N)C(=O)N[C@H](C(=O)N[C@@H](CCCNC(=N)N)C(=O)N[C@@H](CO)C(N)=O)C(C)C [7-mer, NH2-Asp-Leu-Tyr-Arg-Val-Arg-Ser-COOH]
viability at 24 h, 20 μM (in vitro; Rar264.7 cell viability): 55 ± 3.66%
viability at 24 h, 20 μM (in vitro; Raw264.7 cell viability): 55.7 ± 4.24%
level of dermal collagen (Masson's trichrome) ([1]; 7-mer 0.2 mM s.c. with HOCl daily for 6 wks, vs HOCl/vehicle, FIG. 3A): significant decrease
collagen content of skin ([1]; 7-mer treated SSc mice, HOCl-treated SSc mice 169.9±7.75, FIG. 3B): 99.0±5.43 μg collagen/mg skin
inflammation in the knee (synoviocyte proliferation, leukocyte infiltration, H&E) (LPS-induced arthritis): significantly attenuated
inflammatory cell infiltration (peribronchial, perivascular; H&E) [2]: significantly reduced
mucus secretion (PAS staining) [2]: markedly reduced
